Assay results reported in ChEMBL document CHEMBL5465560, “Selectivity Literature for EUbOPEN Chemogenomic Library” (2024).

Assays:
[1] = target: Serine/threonine-protein kinase Nek6 (Homo sapiens) (UniProt Q9HC98); test: Selectivity interaction (KinomeScan (DiscoverX)) EUB0001049a NEK6; details: at 1 µM
[2] = target: Transient receptor potential cation channel subfamily M member 6 (Homo sapiens) (UniProt Q9BX84); test: Selectivity interaction (KinomeScan (DiscoverX)) EUB0000607a TRPM6; details: at 10 µM
Chain of Transient receptor potential cation channel subfamily M member 6 (Homo sapiens) (Q9BX84 whole entry): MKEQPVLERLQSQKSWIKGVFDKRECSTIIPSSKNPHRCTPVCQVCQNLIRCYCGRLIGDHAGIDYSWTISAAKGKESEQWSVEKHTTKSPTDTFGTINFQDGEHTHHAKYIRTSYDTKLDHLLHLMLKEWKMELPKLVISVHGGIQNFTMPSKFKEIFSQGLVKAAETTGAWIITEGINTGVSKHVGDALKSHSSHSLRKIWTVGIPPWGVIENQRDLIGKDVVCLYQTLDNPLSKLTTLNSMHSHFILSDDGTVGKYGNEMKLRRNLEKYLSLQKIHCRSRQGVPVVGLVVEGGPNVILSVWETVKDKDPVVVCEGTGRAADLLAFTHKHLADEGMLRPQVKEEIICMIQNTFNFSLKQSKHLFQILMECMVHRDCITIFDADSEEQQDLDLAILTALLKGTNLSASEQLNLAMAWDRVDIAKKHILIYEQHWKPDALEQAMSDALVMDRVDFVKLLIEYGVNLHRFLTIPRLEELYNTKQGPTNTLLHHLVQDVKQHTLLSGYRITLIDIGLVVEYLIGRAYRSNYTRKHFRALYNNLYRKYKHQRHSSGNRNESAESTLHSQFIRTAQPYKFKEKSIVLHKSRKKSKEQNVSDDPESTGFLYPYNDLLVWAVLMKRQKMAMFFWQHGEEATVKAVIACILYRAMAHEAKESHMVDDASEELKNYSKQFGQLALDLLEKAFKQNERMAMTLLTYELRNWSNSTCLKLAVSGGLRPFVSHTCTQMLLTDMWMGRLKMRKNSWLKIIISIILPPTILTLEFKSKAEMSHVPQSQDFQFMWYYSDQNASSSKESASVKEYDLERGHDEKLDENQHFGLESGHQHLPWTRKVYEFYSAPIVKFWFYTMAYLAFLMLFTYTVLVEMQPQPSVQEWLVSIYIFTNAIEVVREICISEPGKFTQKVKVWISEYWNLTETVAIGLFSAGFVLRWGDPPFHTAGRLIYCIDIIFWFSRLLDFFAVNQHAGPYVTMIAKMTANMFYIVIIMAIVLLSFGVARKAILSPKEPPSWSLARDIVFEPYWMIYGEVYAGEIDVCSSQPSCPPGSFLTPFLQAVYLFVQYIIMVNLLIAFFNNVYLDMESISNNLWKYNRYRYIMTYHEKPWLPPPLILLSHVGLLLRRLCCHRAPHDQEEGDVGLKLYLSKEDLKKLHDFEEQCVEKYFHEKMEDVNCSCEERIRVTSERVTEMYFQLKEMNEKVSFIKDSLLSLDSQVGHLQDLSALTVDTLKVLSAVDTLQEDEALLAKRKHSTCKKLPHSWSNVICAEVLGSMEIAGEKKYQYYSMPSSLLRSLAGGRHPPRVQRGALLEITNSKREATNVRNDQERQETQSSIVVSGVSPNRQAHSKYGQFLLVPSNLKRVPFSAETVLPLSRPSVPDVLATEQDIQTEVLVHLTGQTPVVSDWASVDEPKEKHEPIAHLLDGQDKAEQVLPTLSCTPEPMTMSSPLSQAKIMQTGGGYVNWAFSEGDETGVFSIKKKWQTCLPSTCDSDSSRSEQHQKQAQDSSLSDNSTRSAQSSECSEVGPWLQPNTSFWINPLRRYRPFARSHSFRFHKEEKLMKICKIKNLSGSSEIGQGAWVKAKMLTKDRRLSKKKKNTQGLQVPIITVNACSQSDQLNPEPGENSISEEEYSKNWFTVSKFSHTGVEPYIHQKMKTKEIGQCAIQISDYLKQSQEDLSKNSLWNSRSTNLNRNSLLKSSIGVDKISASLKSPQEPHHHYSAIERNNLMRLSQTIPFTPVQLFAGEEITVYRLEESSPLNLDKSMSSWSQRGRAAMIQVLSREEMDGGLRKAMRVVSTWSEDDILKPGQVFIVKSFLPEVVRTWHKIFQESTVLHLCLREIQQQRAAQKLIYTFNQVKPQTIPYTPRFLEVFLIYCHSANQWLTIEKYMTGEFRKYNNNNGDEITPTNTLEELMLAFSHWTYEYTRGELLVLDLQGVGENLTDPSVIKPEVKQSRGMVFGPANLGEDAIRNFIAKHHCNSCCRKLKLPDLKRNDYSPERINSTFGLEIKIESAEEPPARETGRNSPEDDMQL

[3] = target: eIF-2-alpha kinase GCN2 (Homo sapiens) (UniProt Q9P2K8); test: Selectivity interaction (ActivX KiNativ screen (kinase selectivity in THP-1 cell lysates)) EUB0000639a EIF2AK4; type: subcellular; details: lysate, at 0.04 µM
Chain of eIF-2-alpha kinase GCN2 (Homo sapiens) (Q9P2K8 whole entry): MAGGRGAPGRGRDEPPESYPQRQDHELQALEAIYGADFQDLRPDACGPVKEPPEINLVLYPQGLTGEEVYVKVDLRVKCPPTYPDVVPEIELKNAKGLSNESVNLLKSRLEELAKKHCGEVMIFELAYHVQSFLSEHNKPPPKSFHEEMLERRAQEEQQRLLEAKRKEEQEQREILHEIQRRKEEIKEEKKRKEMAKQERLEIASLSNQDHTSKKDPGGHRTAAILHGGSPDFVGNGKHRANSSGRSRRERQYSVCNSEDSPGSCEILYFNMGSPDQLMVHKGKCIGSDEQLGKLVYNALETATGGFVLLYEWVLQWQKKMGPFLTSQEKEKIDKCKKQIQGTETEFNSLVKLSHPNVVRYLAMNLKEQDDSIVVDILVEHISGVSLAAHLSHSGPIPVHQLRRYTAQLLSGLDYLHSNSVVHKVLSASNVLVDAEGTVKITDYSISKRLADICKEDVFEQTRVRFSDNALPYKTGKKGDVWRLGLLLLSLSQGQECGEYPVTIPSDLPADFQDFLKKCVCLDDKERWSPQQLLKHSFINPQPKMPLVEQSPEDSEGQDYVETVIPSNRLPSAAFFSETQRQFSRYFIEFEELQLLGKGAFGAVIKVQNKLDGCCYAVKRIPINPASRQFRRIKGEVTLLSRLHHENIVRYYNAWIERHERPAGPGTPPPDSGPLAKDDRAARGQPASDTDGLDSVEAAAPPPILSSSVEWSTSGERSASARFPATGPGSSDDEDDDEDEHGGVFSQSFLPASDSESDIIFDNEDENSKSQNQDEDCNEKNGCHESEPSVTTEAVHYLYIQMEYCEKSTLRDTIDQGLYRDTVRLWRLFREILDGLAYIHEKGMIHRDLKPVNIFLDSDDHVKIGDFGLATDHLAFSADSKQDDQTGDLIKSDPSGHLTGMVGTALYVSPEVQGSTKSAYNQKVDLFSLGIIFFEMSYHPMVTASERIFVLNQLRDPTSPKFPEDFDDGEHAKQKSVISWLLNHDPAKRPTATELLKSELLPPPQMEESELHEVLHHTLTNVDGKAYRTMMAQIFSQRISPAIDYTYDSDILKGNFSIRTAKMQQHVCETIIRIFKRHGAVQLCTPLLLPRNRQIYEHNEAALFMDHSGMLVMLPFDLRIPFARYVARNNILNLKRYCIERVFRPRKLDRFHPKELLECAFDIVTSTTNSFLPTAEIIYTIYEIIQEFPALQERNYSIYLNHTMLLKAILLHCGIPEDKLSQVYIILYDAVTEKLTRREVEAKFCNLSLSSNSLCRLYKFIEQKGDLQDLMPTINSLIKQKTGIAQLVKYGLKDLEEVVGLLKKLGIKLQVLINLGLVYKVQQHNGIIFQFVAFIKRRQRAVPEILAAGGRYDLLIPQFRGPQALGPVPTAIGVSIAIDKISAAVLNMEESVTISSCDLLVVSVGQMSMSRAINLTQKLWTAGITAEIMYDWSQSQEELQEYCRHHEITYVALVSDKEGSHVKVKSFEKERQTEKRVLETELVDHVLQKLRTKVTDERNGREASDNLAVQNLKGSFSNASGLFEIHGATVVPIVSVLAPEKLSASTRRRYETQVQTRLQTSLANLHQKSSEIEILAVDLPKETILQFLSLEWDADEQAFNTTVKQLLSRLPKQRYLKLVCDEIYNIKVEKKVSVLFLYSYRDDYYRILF

[4] = target: T1, Ephrin type-A receptor 1 (Homo sapiens) (UniProt P21709); test: Selectivity interaction (KinomeScan (DiscoverX)) EUB0000655a EPHA1; details: at 10 µM
T1 sequence (whole entry): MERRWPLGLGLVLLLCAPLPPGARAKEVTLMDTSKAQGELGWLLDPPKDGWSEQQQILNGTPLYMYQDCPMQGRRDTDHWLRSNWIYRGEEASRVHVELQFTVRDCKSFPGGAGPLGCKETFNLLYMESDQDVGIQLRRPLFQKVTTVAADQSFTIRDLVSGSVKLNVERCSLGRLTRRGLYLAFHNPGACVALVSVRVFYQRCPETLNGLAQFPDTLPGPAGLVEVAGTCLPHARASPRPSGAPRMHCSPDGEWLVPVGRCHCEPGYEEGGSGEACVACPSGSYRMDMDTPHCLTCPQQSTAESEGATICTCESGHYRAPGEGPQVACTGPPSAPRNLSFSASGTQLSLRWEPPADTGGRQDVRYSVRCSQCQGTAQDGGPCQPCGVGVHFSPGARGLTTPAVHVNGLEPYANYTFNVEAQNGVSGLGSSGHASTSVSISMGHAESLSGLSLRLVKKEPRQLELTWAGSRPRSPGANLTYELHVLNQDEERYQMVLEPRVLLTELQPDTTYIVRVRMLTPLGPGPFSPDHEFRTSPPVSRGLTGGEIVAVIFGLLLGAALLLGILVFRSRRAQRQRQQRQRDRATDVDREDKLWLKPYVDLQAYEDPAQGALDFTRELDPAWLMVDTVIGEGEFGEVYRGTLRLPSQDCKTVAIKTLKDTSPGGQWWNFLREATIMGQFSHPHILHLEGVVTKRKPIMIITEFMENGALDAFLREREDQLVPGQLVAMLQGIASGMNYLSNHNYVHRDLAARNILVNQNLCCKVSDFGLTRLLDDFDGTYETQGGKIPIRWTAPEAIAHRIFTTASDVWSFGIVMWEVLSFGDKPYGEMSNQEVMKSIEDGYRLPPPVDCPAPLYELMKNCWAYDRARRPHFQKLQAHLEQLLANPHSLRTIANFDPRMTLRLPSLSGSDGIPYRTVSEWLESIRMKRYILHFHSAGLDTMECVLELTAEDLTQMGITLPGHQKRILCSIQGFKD

[5] = target: T2, cGMP-dependent protein kinase 2 (Homo sapiens) (UniProt Q13237); details: at 10 µM
T2 sequence (whole entry): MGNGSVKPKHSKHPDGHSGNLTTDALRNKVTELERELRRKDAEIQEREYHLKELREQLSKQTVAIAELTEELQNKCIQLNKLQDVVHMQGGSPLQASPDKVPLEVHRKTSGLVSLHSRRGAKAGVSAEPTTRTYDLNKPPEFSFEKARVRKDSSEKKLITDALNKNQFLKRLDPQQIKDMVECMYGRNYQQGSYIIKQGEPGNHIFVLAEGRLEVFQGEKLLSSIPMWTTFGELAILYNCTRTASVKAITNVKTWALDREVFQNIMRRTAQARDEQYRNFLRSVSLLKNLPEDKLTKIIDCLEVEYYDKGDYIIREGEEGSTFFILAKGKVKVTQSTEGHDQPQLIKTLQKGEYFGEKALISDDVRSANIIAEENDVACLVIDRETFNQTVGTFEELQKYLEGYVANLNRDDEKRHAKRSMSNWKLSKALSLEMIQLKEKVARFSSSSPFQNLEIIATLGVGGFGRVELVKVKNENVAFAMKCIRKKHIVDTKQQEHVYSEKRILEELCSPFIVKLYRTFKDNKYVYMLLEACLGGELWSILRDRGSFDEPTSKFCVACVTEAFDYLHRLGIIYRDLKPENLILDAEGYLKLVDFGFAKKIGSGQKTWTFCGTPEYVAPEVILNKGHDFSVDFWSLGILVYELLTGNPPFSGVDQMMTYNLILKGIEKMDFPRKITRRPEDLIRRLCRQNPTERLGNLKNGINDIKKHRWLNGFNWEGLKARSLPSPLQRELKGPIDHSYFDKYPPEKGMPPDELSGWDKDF

[6] = target: Ribosomal protein S6 kinase alpha-6 (Homo sapiens, UniProt Q9UK32); test: Selectivity interaction (KinomeScan (DiscoverX)) EUB0000092b RPS6KA6; details: at 10 µM
Chain of Ribosomal protein S6 kinase alpha-6 (Q9UK32 whole entry): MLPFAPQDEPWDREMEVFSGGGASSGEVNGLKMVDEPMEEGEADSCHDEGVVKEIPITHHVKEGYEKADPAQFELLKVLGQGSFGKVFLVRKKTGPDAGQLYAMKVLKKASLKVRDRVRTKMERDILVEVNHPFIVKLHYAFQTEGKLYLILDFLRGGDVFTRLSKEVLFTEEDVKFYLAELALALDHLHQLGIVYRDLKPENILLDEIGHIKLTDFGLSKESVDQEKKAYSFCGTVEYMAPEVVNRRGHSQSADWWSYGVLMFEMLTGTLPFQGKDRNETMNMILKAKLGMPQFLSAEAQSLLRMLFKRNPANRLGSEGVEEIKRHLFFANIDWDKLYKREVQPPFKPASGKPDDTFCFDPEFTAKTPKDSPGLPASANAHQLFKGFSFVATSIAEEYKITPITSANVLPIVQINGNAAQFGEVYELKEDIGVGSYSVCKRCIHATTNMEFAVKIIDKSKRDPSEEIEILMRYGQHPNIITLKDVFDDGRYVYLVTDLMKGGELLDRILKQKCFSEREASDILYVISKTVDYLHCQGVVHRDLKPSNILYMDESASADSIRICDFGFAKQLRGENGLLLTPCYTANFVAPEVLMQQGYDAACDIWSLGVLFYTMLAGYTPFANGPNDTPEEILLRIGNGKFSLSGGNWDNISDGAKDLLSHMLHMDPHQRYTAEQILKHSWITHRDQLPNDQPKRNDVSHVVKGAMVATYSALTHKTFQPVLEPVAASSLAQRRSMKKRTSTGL

[7] = target: T3, Ephrin type-B receptor 1 (Homo sapiens) (UniProt P54762); test: Selectivity interaction (Ambit KINOMEscan and KiNATiv profiling in Jurkat cells) EUB0000090b EPHB1; type: cell-based; details: at 1 µM
T3 sequence (whole entry): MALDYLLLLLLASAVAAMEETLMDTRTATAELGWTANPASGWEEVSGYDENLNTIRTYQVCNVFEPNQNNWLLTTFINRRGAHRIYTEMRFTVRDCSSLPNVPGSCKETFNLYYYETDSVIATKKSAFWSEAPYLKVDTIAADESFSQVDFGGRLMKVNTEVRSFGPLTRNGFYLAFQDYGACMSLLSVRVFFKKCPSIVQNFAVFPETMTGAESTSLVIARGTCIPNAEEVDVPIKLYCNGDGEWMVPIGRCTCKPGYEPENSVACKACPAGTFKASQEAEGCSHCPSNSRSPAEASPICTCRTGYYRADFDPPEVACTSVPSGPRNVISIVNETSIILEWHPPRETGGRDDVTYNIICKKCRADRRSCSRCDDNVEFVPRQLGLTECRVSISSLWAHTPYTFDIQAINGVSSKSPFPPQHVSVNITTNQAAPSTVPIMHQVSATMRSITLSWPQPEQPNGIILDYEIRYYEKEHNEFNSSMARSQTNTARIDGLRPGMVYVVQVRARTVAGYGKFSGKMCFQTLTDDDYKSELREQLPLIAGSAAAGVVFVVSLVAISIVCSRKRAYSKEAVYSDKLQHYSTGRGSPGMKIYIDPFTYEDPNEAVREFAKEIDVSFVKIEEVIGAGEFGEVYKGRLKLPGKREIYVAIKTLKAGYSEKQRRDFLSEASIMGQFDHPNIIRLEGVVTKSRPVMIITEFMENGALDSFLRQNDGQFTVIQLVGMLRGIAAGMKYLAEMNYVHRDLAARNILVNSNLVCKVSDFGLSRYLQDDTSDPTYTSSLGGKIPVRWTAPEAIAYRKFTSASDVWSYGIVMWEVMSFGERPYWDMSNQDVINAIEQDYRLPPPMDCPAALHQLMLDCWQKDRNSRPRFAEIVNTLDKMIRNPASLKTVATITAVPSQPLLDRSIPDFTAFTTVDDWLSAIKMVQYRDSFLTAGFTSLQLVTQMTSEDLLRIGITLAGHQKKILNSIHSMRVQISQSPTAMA

Chain of Serine/threonine-protein kinase Nek6 (Homo sapiens) (Q9HC98 whole entry): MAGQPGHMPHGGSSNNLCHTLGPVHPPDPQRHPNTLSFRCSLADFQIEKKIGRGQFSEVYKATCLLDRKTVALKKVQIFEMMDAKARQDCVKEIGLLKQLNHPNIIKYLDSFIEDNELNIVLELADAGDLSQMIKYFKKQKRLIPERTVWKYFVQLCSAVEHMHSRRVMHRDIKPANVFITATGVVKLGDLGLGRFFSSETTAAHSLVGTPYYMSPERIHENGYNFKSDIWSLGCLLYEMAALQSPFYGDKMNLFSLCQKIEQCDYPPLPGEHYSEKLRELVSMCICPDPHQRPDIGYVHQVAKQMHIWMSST

COc1cc(Nc2nc(C)cc(-c3cnn4nc(OC)ccc34)n2)cc(C(F)(F)F)c1
% of control [1]: 89%

CNC(=O)Nc1ccc(-c2nc(N3CC4CCC(C3)O4)c3cnn(C4CCC5(CC4)OCCO5)c3n2)cc1
% of control [2]: 100%

CC[C@@H]1[C@H](F)C(=O)N[C@@H]1COc1nccc2cc(C(N)=O)c(OC)cc12 [ZIMLOVISERTIB]
% of inhibition [3]: 0.9%

CN(C)CCOc1ccc(-c2nc(-c3ccncc3)c(-c3ccc4c(c3)CC/C4=N\O)[nH]2)cc1
% of control [4]: 91%

CCN(CC)CCCCNc1ncc2cc(-c3cc(OC)cc(OC)c3)c(NC(=O)NC(C)(C)C)nc2n1
% of control [5]: 100%

CCC(=O)N1CCN(c2ccc(-n3c(=O)ccc4cnc5ccc(-c6cnc7ccccc7c6)cc5c43)cc2C(F)(F)F)CC1
% of control [6]: 66%

CN(C)C/C=C/C(=O)Nc1ccc(C(=O)N2CCCC(Nc3ncc(Cl)c(-c4c[nH]c5ccccc45)n3)C2)cc1 (configuration not stated)
% of control [7]: 95%
